Measurements published in patent US7304050B2, “Antibacterial agents” (Pfizer Inc., priority 2003, dated 2007).
≈ marks a conversion by molar mass, not a printed value.

Legend:
H. influenzae HI3542 = test: Antibacterial assay (Test A), microtitration MIC, Gram negative; assay type: cell-based; conditions: Gram Negative Bacteria, strain HI3542; for MIC: Haemophilus influenzae, read-out: Minimum Inhibitory Concentrations H. influenzae HI3542
Procedure: (§1) The compounds of the present invention were tested against an assortment of Gram-negative and Gram-positive organisms using standard microtitration techniques (Cohen et. al., Antimicrob., 1985;28:766;Heifetz, et. al., Antimicrob., 1974;6: 124).

M. catarrhalis BC3534 = test: as above; assay type: cell-based; conditions: Gram Negative Bacteria, strain BC3534; for MIC: Moraxella catarrhalis, read-out: Minimum Inhibitory Concentrations M. catarrhalis BC3534
Procedure: as §1

E. coli Tol C = test: as above; assay type: cell-based; conditions: for MIC: Escherichia coli, read-out: Minimum Inhibitory Concentrations E. coli Tol C
Procedure: as §1

E. faecalis MGH-2 = test: Antibacterial assay (Test A), microtitration MIC, Gram positive; assay type: cell-based; conditions: Gram Positive Bacteria, strain MGH-2; for MIC: Enterococcus faecalis, MGH2, read-out: Minimum Inhibitory Concentrations E. faecalis MGH-2
Procedure: as §1

S. aureus UC-76 = test: as above; assay type: cell-based; conditions: Gram Positive Bacteria, strain UC-76; for MIC: Staphylococcus aureus, UC76, read-out: Minimum Inhibitory Concentrations S. aureus UC-76
Procedure: as §1

S pyogenes C203 = test: as above; assay type: cell-based; conditions: Gram Positive Bacteria, strain C203; for MIC: read-out: Minimum Inhibitory Concentrations S pyogenes C203
Procedure: as §1

[1] = tested on: E. coli transcription and translation (TnT); assay type: biochemical

7-{7-[5-(Acetylamino-methyl)-2-oxo-oxazolidin-3-yl]-1,3,4,5-tetrahydro-benzo[c]azepin-2-yl}-1-cyclopropyl-8-difluoromethoxy-6-fluoro-4-oxo-1,4-dihydro-[1,8]naphthyridine-3-carboxylic Acid [Example 18]
Minimum Inhibitory Concentrations H. influenzae HI3542 (H. influenzae HI3542): 0.06 µg/mL
Minimum Inhibitory Concentrations M. catarrhalis BC3534 (M. catarrhalis BC3534): 2 µg/mL
Minimum Inhibitory Concentrations E. coli Tol C (E. coli Tol C; Gram Negative Bacteria, strain Tol C): 16 µg/mL
Minimum Inhibitory Concentrations E. faecalis MGH-2 (E. faecalis MGH-2): 8 µg/mL
Minimum Inhibitory Concentrations S. aureus UC-76 (S. aureus UC-76): 1 µg/mL
Minimum Inhibitory Concentrations S pyogenes C203 (S pyogenes C203): 0.06 µg/mL

COc1c(N2CCCc3cc(N4C[C@H](CNC(C)=O)OC4=O)ccc3C2)c(F)c(C)c2c(=O)c(C(=O)O)cn(C3CC3)c12 (stereo in doubt) [Example 2, 7-{7-[5-(Acetylamino-methyl)-2-oxo-oxazolidin-3-yl]-1,3,4,5-tetrahydro-benzo[c]azepin-2-yl}-1-cyclopropyl-6-fluoro-8-methoxy-5-methyl-4-oxo-1,4-dihydro-quinoline-3-carboxylic Acid]
Inhibitory concentration in E. coli cell-free transcription/translation (TnT) assay [1]: 9.6 µg/mL
MIC (H. influenzae HI3542): 0.06 mg/L (≈ 0.101 µM)
MIC (M. catarrhalis BC3534): 8 mg/L (≈ 13.5 µM)
MIC (E. coli Tol C): 16 mg/L (≈ 27 µM)
MIC (E. faecalis MGH-2): 8 mg/L (≈ 13.5 µM)
MIC (S. aureus UC-76): 0.06 mg/L (≈ 0.101 µM)
MIC (S pyogenes C203): 8 mg/L (≈ 13.5 µM)

COc1c(N2CCCc3cc(N4C[C@H](CNC(C)=O)OC4=O)ccc3C2)c(F)cc2c(=O)c(C(=O)O)cn(C3CC3)c12 (stereo in doubt) [Example 4, 7-{7-[5-(Acetylamino-methyl)-2-oxo-oxazolidin-3-yl]-1,3,4,5-tetrahydro-benzo[c]azepin-2-yl}-1-cyclopropyl-6-fluoro-8-methoxy-4-oxo-1,4-dihydro-quinoline-3-carboxylic Acid]
Inhibitory concentration in E. coli cell-free transcription/translation (TnT) assay [1]: 4.0 µg/mL
MIC (H. influenzae HI3542): 0.06 mg/L (≈ 0.104 µM)
MIC (M. catarrhalis BC3534): 0.5 mg/L (≈ 0.864 µM)
MIC (E. coli Tol C): 2 mg/L (≈ 3.46 µM)
MIC (E. faecalis MGH-2): 1 mg/L (≈ 1.73 µM)
MIC (S. aureus UC-76): 0.06 mg/L (≈ 0.104 µM)
MIC (S pyogenes C203): 1 mg/L (≈ 1.73 µM)

CC(=O)NC[C@H]1CN(c2ccc3c(c2)CCCN(c2nc4c(cc2F)c(=O)c(C(=O)O)cn4C2CC2)C3)C(=O)O1 (stereo in doubt) [Example 15, 7-{7-[5-(Acetylamino-methyl)-2-oxo-oxazolidin-3-yl]-1,3,4,5-tetrahydro-benzo[c]azepin-2-yl}-1-cyclopropyl-6-fluoro-4-oxo-1,4-dihydro-[1,8]naphthyridine-3-carboxylic Acid]
MIC (H. influenzae HI3542): 0.06 mg/L (≈ 0.109 µM)
MIC (M. catarrhalis BC3534): 4 mg/L (≈ 7.28 µM)
MIC (E. coli Tol C): 4 mg/L (≈ 7.28 µM)
MIC (E. faecalis MGH-2): 4 mg/L (≈ 7.28 µM)
MIC (S. aureus UC-76): 2 mg/L (≈ 3.64 µM)
MIC (S pyogenes C203): 4 mg/L (≈ 7.28 µM)

CC(=O)NC[C@H]1CN(c2ccc3c(c2)CCCN(c2cc4c(c(C)c2F)c(=O)c(C(=O)O)cn4C2CC2)C3)C(=O)O1 [Example 3, 7-{7-[5-(Acetylamino-methyl)-2-oxo-oxazolidin-3-yl]-1,3,4,5-tetrahydro-benzo[c]azepin-2-yl}-1-cyclopropyl-6-fluoro-5-methyl-4-oxo-1,4-dihydro-quinoline-3-carboxylic Acid]
MIC (H. influenzae HI3542): 0.06 mg/L (≈ 0.107 µM)
MIC (M. catarrhalis BC3534): 16 mg/L (≈ 28.4 µM)
MIC (E. coli Tol C): 32 mg/L (≈ 56.9 µM)
MIC (E. faecalis MGH-2): 32 mg/L (≈ 56.9 µM)
MIC (S. aureus UC-76): 1 mg/L (≈ 1.78 µM)
MIC (S pyogenes C203): 16 mg/L (≈ 28.4 µM)

CCn1cc(C(=O)O)c(=O)c2cc(F)c(N3CCCc4cc(N5C[C@H](CNC(C)=O)OC5=O)ccc4C3)nc21 [Example 17, 7-{7-[5-(Acetylamino-methyl)-2-oxo-oxazolidin-3-yl]-1,3,4,5-tetrahydro-benzo[c]azepin-2-yl}-1-ethyl-6-fluoro-4-oxo-1,4-dihydro-[1,8]naphthyridine-3-carboxylic Acid]
MIC (H. influenzae HI3542): 0.5 mg/L (≈ 0.93 µM)
MIC (M. catarrhalis BC3534): 64 mg/L (≈ 119 µM)
MIC (E. coli Tol C): 64 mg/L (≈ 119 µM)
MIC (E. faecalis MGH-2): 64 mg/L (≈ 119 µM)
MIC (S. aureus UC-76): 64 mg/L (≈ 119 µM)
MIC (S pyogenes C203): 64 mg/L (≈ 119 µM)
